Experimental findings from ChEMBL document CHEMBL1122611, “Synthesis and in vitro biological evaluation of N-[(5-amino-1-beta-D-ribofuranosyl-1H-imidazol-4-yl)carbonyl]-3- (hydroxynitrosamino)-L-alanine (L-alanosine AICO ribonucleoside)” (1984) are described below.

pEC50: −log10 of the molar value.

The nature of experiment [1]: Evaluation of inhibitory activity of adenylosuccinate synthetase.
The nature of experiment [2]: Evaluation of inhibitory activity against adenylosuccinate synthetase.
A further experiment has as its system HL-60. As to the kind of experiment: In vitro evaluation of inhibitory activity of HL60 human promyelocytic tumor cell. The class given is functional. To be noted: read-out: ED50 (the source's name).

Regarding `Nc1c(C(=O)NC(CN(O)N=O)C(=O)O)ncn1[C@@H]1O[C@H](CO)[C@@H](O)[C@H]1O` (stereo not given in full), the ED50 in experiment [1] is 300 nM; in experiment [2], > 1 mM. Also, in the experiment with HL-60, the pEC50 was < 4.00.
For `N[C@@H](CN(O)N=O)C(=O)O` [LALANOSINE], the ED50 in experiment [2] amounted to 7 mM. Also, the pEC50 in the experiment with HL-60 is 5.70.
